{
  "source": "BindingDB's records for doi:10.1021/jm00155a029",
  "about": "(1986)",
  "assay": "Compound was tested for the inhibitory effect against Gamma-amino-N-butyrate transaminase from bacteria",
  "data": [
    {"smiles": "NC/C=C(\\CF)C(=O)O", "note": "[(2Z)-4-ammonio-2-(fluoromethyl)but-2-enoate]", "values": [
      {"measurement": "Ki", "result": 9, "unit": "µM"}
    ]}
  ]
}
